pIC50: −log10 of the molar value.

The target of one experiment is b-Raf (V600E) (Homo sapiens (Human), UniProt P15056, V600E). In words: In vitro Raf activity determination (Alpha Screen, phospho-MEK), b-Raf (V600E). Type of experiment: biochemical. Conditions: ATP 10 μM, 60 min pre-incubation, 3 hours reaction. An excerpt:
The activity of a compound according to the present invention can be assessed by well-known in vitro & in vivo methods. Raf inhibition data provided herein was obtained using the following procedures.
Sf9 cells co-expressing both proteins were lysed and subjected to immobilized nickel chromatography and eluted with Imidazole. A second column (StrepII binding column) was used and eluted with desthiobiotin. Protein Tags were removed using Prescission enzyme and the protein was further purified using a flowthrough step to remove tags.
Full length MEK1 with an inactivating K97R ATP binding site mutation is utilized as a RAF substrate. The MEK1 cDNA was subcloned with an N-terminal (his)6 tag into a vector for E. Coli expression. The MEK1 substrate was purified from E. Coli lysate by nickel affinity chromatography followed by anion exchange. The final MEK1 preparation was biotinylated (Pierce EZ-Link Sulfo-NHS-LC-Biotin) and concentrated.
The plate was incubated for 60 minutes at room temperature. […] The additions were carried out under dark conditions to protect the detection beads from light. A lid was placed on top of the plate and incubated for 1 hour at room temperature, after which the luminescence was read on a PerkinElmer Envision instrument.

The target in the next experiment is C-Raf FL (Homo sapiens (Human), UniProt P04049, Y340E/Y341E). Description: In vitro Raf activity determination (Alpha Screen, phospho-MEK), C-Raf FL (full length, Y340E/Y341E). Type of experiment: biochemical. Conditions: ATP 1 μM; 60 min pre-incubation; 1 hour reaction; column head does not say FL or TR. A digest of the protocol:
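Read-out is AlphaScreen luminescence using rabbit anti-p-MEK with protein A beads after EDTA stop, with IC50 fitted by non-linear regression. Reaction: Sf9-derived C-Raf plus biotinylated E. coli MEK1 K97R substrate, pH 7.5 Tris/MgCl2/DTT buffer, compound preincubated 60 min at room temperature.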

Chain of b-Raf (V600E) (P15056 whole entry V600E): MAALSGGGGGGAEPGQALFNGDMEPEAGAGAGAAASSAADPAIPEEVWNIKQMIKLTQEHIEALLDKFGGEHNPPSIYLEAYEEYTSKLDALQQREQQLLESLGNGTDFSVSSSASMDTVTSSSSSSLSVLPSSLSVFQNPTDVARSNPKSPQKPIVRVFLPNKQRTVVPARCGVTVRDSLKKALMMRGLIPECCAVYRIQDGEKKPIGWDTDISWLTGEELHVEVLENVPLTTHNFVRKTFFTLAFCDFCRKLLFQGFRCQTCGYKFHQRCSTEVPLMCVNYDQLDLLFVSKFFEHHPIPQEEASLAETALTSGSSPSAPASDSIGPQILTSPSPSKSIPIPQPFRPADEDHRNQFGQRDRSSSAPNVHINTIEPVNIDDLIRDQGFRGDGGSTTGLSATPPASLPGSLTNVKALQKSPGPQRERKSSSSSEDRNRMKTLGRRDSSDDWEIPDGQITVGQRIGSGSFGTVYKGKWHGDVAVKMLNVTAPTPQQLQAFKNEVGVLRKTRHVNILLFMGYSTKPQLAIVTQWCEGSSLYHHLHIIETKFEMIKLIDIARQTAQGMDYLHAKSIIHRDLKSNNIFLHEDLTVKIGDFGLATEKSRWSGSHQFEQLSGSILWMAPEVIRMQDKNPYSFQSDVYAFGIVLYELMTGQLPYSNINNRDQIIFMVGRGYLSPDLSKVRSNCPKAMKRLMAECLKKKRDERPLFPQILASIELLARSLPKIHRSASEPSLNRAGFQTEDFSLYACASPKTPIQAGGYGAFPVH
Chain of C-Raf FL (P04049 whole entry Y340E/Y341E): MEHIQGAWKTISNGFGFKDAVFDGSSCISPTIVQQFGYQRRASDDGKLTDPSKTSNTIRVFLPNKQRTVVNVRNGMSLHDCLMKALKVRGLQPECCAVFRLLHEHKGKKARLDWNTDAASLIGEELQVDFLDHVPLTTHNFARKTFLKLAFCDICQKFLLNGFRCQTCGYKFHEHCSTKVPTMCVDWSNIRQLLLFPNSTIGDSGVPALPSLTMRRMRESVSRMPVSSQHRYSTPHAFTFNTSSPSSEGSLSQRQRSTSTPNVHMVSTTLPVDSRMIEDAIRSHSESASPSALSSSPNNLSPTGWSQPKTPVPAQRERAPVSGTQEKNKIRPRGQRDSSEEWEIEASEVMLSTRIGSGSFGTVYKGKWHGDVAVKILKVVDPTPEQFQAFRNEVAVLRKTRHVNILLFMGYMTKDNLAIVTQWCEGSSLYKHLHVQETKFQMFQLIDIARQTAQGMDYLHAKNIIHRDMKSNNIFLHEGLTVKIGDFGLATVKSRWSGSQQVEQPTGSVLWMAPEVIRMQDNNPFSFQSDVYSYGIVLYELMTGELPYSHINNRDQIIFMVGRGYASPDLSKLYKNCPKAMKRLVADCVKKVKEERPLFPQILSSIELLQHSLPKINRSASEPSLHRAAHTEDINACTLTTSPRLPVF
Chain of C-Raf FL (P63104 whole entry partner): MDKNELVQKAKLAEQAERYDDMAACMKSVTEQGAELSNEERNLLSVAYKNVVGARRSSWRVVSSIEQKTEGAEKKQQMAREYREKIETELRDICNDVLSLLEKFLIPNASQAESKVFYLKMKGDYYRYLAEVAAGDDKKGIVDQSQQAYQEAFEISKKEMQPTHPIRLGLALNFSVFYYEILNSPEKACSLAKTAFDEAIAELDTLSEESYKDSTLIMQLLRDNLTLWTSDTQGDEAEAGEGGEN

`COc1ncc(-c2cc(NC(=O)c3ccnc(C(F)(F)F)c3)cnc2C)cc1C1(O)COC1` [Example 75, N-(5′-(3-hydroxyoxetan-3-yl)-6′-methoxy-2-methyl-[3,3′-bipyridin]-5-yl)-2-(trifluoromethyl)isonicotin-amide]: the pIC50 against b-Raf (V600E) is 7.12; at C-Raf FL it was 8.20.

`COc1ncc(-c2cc(NC(=O)c3ccnc(C(C)(C)F)c3)cnc2C)cc1C1(O)COC1` [Example 76, 2-(2-fluoropropan-2-yl)-N-(5′-(3-hydroxyoxetan-3-yl)-6′-methoxy-2-methyl-[3,3′-bipyridin]-5-yl)isonicotinamide]: the pIC50 against b-Raf (V600E) was 7.64; at C-Raf FL, 8.41.

Consider `COc1ncc(-c2cc(NC(=O)c3ccnc(C(C)(F)F)c3)cnc2C)cc1C1(O)COC1` [Example 77, 2-(1,1-difluoroethyl)-N-(5′-(3-hydroxyoxetan-3-yl)-6′-methoxy-2-methyl-[3,3′-bipyridin]-5-yl)isonicotinamide], for which the pIC50 is 7.62 against b-Raf (V600E) and 8.45 against C-Raf FL.

Turning to `COc1ncc(-c2cc(NC(=O)c3cc(C(F)(F)F)ccn3)cnc2C)cc1C1(O)COC1` [Example 78, N-(5′-(3-hydroxyoxetan-3-yl)-6′-methoxy-2-methyl-[3,3′-bipyridin]-5-yl)-4-(trifluoromethyl)picolin-amide], the pIC50 is 7.63 on b-Raf (V600E) and 8.49 at C-Raf FL.

With `COc1ncc(-c2cc(NC(=O)c3ccnc(C(F)(F)F)c3)cnc2C)cc1C1(F)COC1` [Example 79, N-(5′-(3-fluorooxetan-3-yl)-6′-methoxy-2-methyl-[3,3′-bipyridin]-5-yl)-2-(trifluoromethyl)isonicotin-amide], the results for the pIC50 at b-Raf (V600E) and at C-Raf FL were 8.40 and 9.31, respectively.

As to `COc1ncc(-c2cc(NC(=O)c3ccnc(C(C)(C)O)c3)cnc2C)cc1C1(F)COC1` [Example 81, N-(5′-(3-fluorooxetan-3-yl)-6′-methoxy-2-methyl-[3,3′-bipyridin]-5-yl)-2-(2-hydroxypropan-2-yl)isonicotinamide], the pIC50 against b-Raf (V600E) was 7.46; against C-Raf FL, 8.31.

As to `COc1ncc(-c2cc(NC(=O)c3ccnc(C(C)(C)F)c3)cnc2C)cc1C1(F)COC1` [Example 82, N-(5′-(3-fluorooxetan-3-yl)-6′-methoxy-2-methyl-[3,3′-bipyridin]-5-yl)-2-(2-fluoropropan-2-yl)isonicotinamide], the pIC50 was 8.43 against b-Raf (V600E) and 8.95 at C-Raf FL.

For the compound `COc1ncc(-c2cc(NC(=O)c3cc(C(F)(F)F)ccn3)cnc2C)cc1C1(F)COC1` [Example 83, N-(5′-(3-fluorooxetan-3-yl)-6′-methoxy-2-methyl-[3,3′-bipyridin]-5-yl)-4-(trifluoromethyl)picolin-amide], the pIC50 at b-Raf (V600E) is 10.23; on C-Raf FL, 10.87.

Take `COc1ncc(-c2cc(NC(=O)c3cc(C(F)(F)F)ccn3)ccc2C)cc1C1(O)COC1` [Example 84, N-(3-(5-(3-hydroxyoxetan-3-yl)-6-methoxypyridin-3-yl)-4-methylphenyl)-4-(trifluoromethyl)picolin-amide]: the pIC50 on b-Raf (V600E) is 8.66; on C-Raf FL, 9.45.

Turning to `COc1ncc(-c2cc(NC(=O)c3cc(C(C)(C)C#N)ccn3)ccc2C)cc1C1(O)COC1` [Example 85, 4-(2-cyanopropan-2-yl)-N-(3-(5-(3-hydroxyoxetan-3-yl)-6-methoxypyridin-3-yl)-4-methylphenyl)picolinamide], the pIC50 on b-Raf (V600E) is 8.19; at C-Raf FL, 8.93.

For the compound `COc1ncc(-c2cc(NC(=O)c3cc(C(C)(C)C#N)ccn3)cnc2C)cc1C1(F)COC1` [Example 86, 4-(2-cyanopropan-2-yl)-N-(5′-(3-fluorooxetan-3-yl)-6′-methoxy-2-methyl-[3,3′-bipyridin]-5-yl)picolinamide], the pIC50 at b-Raf (V600E) is 7.83; against C-Raf FL it was 8.63.

Consider `COc1ncc(-c2cc(NC(=O)c3cc(C(C)(C)C#N)ccn3)ccc2C)cc1C1(F)COC1` [Example 87], for which the pIC50 against b-Raf (V600E) is 8.45; on C-Raf FL it was 9.21.

For orientation: pIC50 means the negative decadic logarithm of the IC50, by convention in mol/L. Low values mean a large IC50, high ones a small IC50.

For the origin of these results see patent publication US10167279B2 (NOVARTIS AG, priority 2014, dated 2019).
